From ChEMBL document CHEMBL5120888, “Voratins A-C: Pyridinium Alkaloids from the Marine Dinoflagellate Effrenium voratum with Inhibitory Effects on Biomarkers for Benign Prostatic Hyperplasia” (J Nat Prod, 2022)
Active and inactive are the calls of the source. The rule behind the calls is not given here.

Experiments:
RWPE-1 [1] = assay: Cytotoxicity against human RWPE-1 cells at 0.1 to 1 uM incubated for 24 hrs by MTT assay; format: toxicity, cell-based; conditions: rwpe-1, 24 h, dose 0.1-1 µM
LNCaP [2] = assay: Inhibition of testosterone propionate induced PSA expression in human LNCaP cells pretreated with TP for 1 hr followed by compound addition at 1 to 10 uM by Western blotting analysis; format: functional, cell-based; conditions: dose 1-10 µM
LNCaP [3] = assay: Inhibition of testosterone propionate induced AR expression in human LNCaP cells pretreated with TP for 1 hr followed by compound addition at 1 to 10 uM by Western blotting analysis; format: functional, cell-based; conditions: dose 1-10 µM
[4] = Inhibition of testosterone propionate induced 5AR2 expression in human LNCaP cells pretreated with TP for 1 hr followed by compound addition at 10 uM by Western blotting analysis; format: functional
[5] = Inhibition of testosterone propionate induced PSA expression in human LNCaP cells pretreated with TP for 1 hr followed by compound addition at 10 uM by Western blotting analysis; format: functional
LNCaP [6] = assay: Suppression of testosterone propionate induced 5AR2 expression in human LNCaP cells pretreated with TP for 1 hr followed by compound addition at 10 uM by Western blotting analysis; format: functional, cell-based
LNCaP [7] = assay: Suppression of testosterone propionate induced AR expression in human LNCaP cells pretreated with TP for 1 hr followed by compound addition at 10 uM by Western blotting analysis; format: functional, cell-based
LNCaP [8] = assay: Suppression of testosterone propionate induced PSA expression in human LNCaP cells pretreated with TP for 1 hr followed by compound addition at 10 uM by Western blotting analysis; format: functional, cell-based
RWPE-1 [9] = assay: Inhibition of testosterone propionate induced PCNA expression in human RWPE-1 cells pretreated with TP for 1 hr followed by compound addition at 1 to 10 uM by Western blotting analysis; format: functional, cell-based; conditions: dose 1-10 µM
[10] = Inhibition of testosterone propionate induced PSA expression in human RWPE-1 cells pretreated with TP for 1 hr followed by compound addition at 1 to 10 uM by Western blotting analysis; format: functional; design: scale not given: the % may be the effect or the level left; conditions: dose 1-10 µM

With `C=C1C[C@H](C(=O)[O-])O[C@@]2(C1)C[C@@H](C)C[C@H]([C@@H](O)c1cccc3[n+]1CC[C@H]3C)O2` the Activity (RWPE-1 [1]) was “Non-Toxic”, the inhibition (LNCaP [2]) was “Active” and the inhibition (LNCaP [3]) was “Active”.
In the case of `C=C1C[C@H](C(=O)[O-])O[C@@]2(C1)C[C@@H](C)C[C@H]([C@@H](O)c1cccc3[n+]1CC[C@@H]3C)O2`, the Activity (RWPE-1 [1]) is reported as “Non-Toxic”, the inhibition (LNCaP [3]) is reported as “Active” and the inhibition at 10 µM [4] is reported as 53%. The inhibition at 10 µM [5] was 53%.
In the case of `CC(C)(C)NC(=O)[C@H]1CC[C@H]2[C@@H]3CC[C@H]4NC(=O)C=C[C@]4(C)[C@H]3CC[C@]12C`, the Activity (LNCaP [6]) is reported as “Active”, the Activity (LNCaP [7]) is reported as “Active” and the Activity (LNCaP [8]) is reported as “Active”.
For `C[C@@H]1C[C@H]([C@@H](O)c2cccc3[n+]2CC[C@@H]3C)O[C@@]2(CC[C@H](C(=O)[O-])O2)C1`, the Activity (RWPE-1 [1]) was “Non-Toxic”, the inhibition (LNCaP [2]) was “Active” and the inhibition (LNCaP [3]) was “Active”. The inhibition at 10 µM [4] was 61%, the inhibition at 10 µM [5] was 61% and the inhibition (RWPE-1 [9]) was “Active”. It also gave an Activity [10] of 65%.
